Reference: publication PMC10327353 (Breast Cancer Research : BCR, 2023)

How the values were obtained:
CYP P450s = experiment: CYP P450 inhibition and induction; assay type: in vitro ADME; settings: in vitro
[1] = system: HER2+ metastatic breast cancer; experiment: Phase 1 study: antitumor activity (modified RECIST v1.1); assay type: in vivo, human
Description: (§1) Tumor imaging assessments were conducted every 6 weeks during the first 24 weeks (relative to C1D1) and every 9 weeks thereafter per investigator review according to modified RECIST v1.1 until progressive disease, starting a new anticancer therapy or withdrawal of informed consent (Additional file 1).
as §1, with “six” for “6”, “nine” for “9”, “anti-cancer” for “anticancer”, “consent. Patients who achieved an objective response had confirmatory scans at least four weeks apart.” for “consent (Additional file 1).”
The modified RECIST 1.1 used in this study includes both CNS assessment and extracranial assessment. A maximum of five measurable extracranial lesions, with a maximum of two lesions per organ, were selected in patients with extracranial disease. In addition, a maximum of five measurable intracranial lesions were selected in patients with intracranial disease. […] An overall response will be derived based on extracranial and intracranial response as described in the below table.

[2] = In vivo CNS-PK study in monkey; settings: female, cynomolgus monkey, CSF (relative to unbound plasma/blood), single PO dose of DZD1516 30 mg/kg
Description: (§2) The ability of DZD1516 and DZ2678 to cross the BBB in female Wistar Han rat and female Cynomolgus monkey was studied by assessing the free brain-to-plasma ratio (Kp,uu,brain) and CSF-to-free plasma ratio (Kp,uu,CSF). Total brain-to-blood ratio (Kp,brain) and CSF-to-blood ratio (Kp,CSF) were measured from six time points after oral administration. Free fractions of DZD1516 and DZ2678 in the biological matrix were determined by in vitro plasma and brain binding assay.
(§3) Kp,brain= AUCbrain/AUCblood. Kp,CSF was the average of the CSF-to-blood ratios at the evaluated time points. Kp,uu,brain= Kp,brain× fu,brain/fu,blood; Kpuu,CSF= Kp,CSF/fu,blood.
Three female Cynomolgus monkeys were administered with a single PO dose of DZD1516 at 30 mg/kg. The PO dosing formulation was a suspension in 0.5% HPMC E5 in water (w/v). Plasma and CSF samples were collected at 0.5, 1, 2, 4, 8, and 24 hrs post-dose. The concentrations of DZD1516 and metabolite DZ2678 in monkey plasma and CSF were determined by the validated LC-MS/MS method.

[3] = system: 121 recombinant human kinases; experiment: Kinome selectivity profile, 121-kinase panel; assay type: biochemical; settings: 1 µM DZD1516, Km ATP
Description: In vitro profiling of the 121-recombinant kinase panel was performed at Eurofins UK Ltd (Dundee, UK). In brief, recombinant kinases were incubated within an appropriate buffer containing peptide substrate and radiolabelled γ-^33P-ATP together with the presence or absence of the required compound concentration. The reaction was initiated by adding ATP/Mg^2+ mix. After incubation for 40 minutes at room temperature, the reaction was stopped by adding 3% phosphoric acid solution. A portion of the reaction mix was spotted onto P30 filtermat to trap peptide and washed three times for 5 minutes with phosphoric acid to remove non-specific γ-^33P-ATP. The substrate phosphorylation was then measured by scintillation counting, which determined the level of kinase activity inhibition compared to control reactions. Percentage inhibition data for each kinase was mapped to the kinome tree (www.kinhub.org).

BT474C1 cells = experiment: Cell proliferation assay (CellTiter-Glo), BT474C1; assay type: cell-based, human; settings: Homo sapiens; BT474C1, 72 hrs
Description: BT474C1-Luci Mono1 cells were seeded in 384-well plates at 1500 cells/well in DMEM medium containing 10% FBS and 1 mM Oxaloacetic acid (OAA). A431 cells were seeded in 384-well plates at 1,000 cells/well in DMEM medium containing 10% FBS. After overnight incubation, cells were treated with compounds at various concentrations for 3 days. Then cell viability was measured using a CellTiter-Glo Luminescent Cell Viability Assay from Promega Corp. according to the manufacturer's instructions.

[4] = DMPK modeling prediction of human half-life
[5] = In vivo CNS-PK study in rat; settings: female, Wistar Han, brain and CSF (relative to unbound plasma/blood), single PO dose of DZD1516 30 mg/kg
Description: as §2, §3
In total, twenty-one female Wistar Han rats were administered with a single PO dose of DZD1516 at 30 mg/kg. The PO dosing formulation was a suspension in 0.5% HPMC E5 in water (w/v). Plasma, brain, and CSF samples were collected at 0.5, 1, 2, 4, 8, 24, and 30 hrs post-dose. The concentrations of DZD1516 and metabolite DZ2678 in plasma, brain, and CSF samples from the rats, as well as in plasma and CSF samples from the monkeys, were determined by the validated LC-MS/MS method.

For `COc1cc(O[C@H]2CCN(C)CC2(F)F)c2c(Nc3ccc(Oc4ccn5ncnc5c4)c(C)c3)ncnc2c1` [DZD1516], the “CYP P450s inhibitor and inducer” value (CYP P450s) was “not a CYP P450s inhibitor and inducer”, the disease control rate ([1]; MTD (250 mg), 3/5) was 60% and the “patients who achieved stable disease” value ([1]; all dose levels) was 6 out of 23. For the same compound, the “best antitumor efficacy in intracranial, extracranial and overall lesions” value ([1]; patients, median seven lines of prior systemic therapy) was “stable disease”, the Kp uu [2] was 4.1 and the “number of kinases inhibited > 50%” value [3] was 12. The GI50 (BT474C1 cells) was 20 nM, the predicted human half-life [4] was “about 8 h” and the Kp uu [5] was 0.57 to 0.87.
